Reference: US20220146526A1, “METHOD FOR EVALUATING SAMPLE, ANALYSIS METHOD, METHOD FOR DETECTING DEGRADED SAMPLE, MARKER FOR DETECTING DEGRADED BLOOD PLASMA SAMPLE, AND MARKER FOR DETECTING DEGRADED SERUM SAMPLE” (SHIMADZU CORPORATION, priority 2019, published 2022)

Legend:
Type in all cases: physicochemical, human
[1] = GC/MS of blood plasma sample: time from blood collection to centrifugation (Table A); conditions: blood collection to centrifugation
Outline: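 EDTA blood from a healthy subject was cooled at 4° C, centrifuged at 4° C, 3000 rpm, 15 minutes, and plasma was frozen. After methoxymation and trimethylsilylation, samples ran on GC/MS (BPX5 column, 60-330° C gradient, electron ionization, MRM). Intensity is relative to 15 minutes from collection to centrifugation.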

[2] = LC/MS of blood plasma sample: number of times of freezing and thawing (Table F); conditions: for Rate of increase or decrease: detection intensity relative to 1 at 2 times; for Increase or decrease: detection intensity
Outline: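 Human blood from a healthy subject drawn into EDTA tubes, cooled to 4° C within 1 min or after ≥5 min, centrifuged at 4° C, 3000 rpm, 15 min. Plasma frozen, then freeze-thawed 2, 4, 6 or 10 times and analysed by LC/MS (ESI, MRM). Intensities expressed relative to 2 freeze-thaw cycles set as 1.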

[3] = LC/MS of blood plasma sample: time from blood collection to centrifugation (Table D); conditions: for Rate of increase or decrease: detection intensity relative to 1 at 15 minutes; for Rate of increase or decrease / Increase or decrease: blood collection to centrifugation; for Increase or decrease: detection intensity
Outline: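 Healthy-subject blood (5 mL, EDTA) cooled and held at 4 °C before centrifugation (4 °C, 3000 rpm, 15 min), with plasma then frozen. LC/MS on Discovery HS F5-3 column at 40 °C, 0.1% formic acid water/acetonitrile, 0.25 mL/min, electrospray, MRM; intensities relative to 15 min collection-to-centrifugation set as 1.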

[4] = LC/MS of serum sample: time from centrifugation to isolation (Table K); design: key to Rate of increase or decrease: detection intensity relative to the 30-minute value set as 1; conditions: for Rate of increase or decrease: after 1 hour from centrifugation to isolation, detection intensity relative to 1 at 30 minutes; for Increase or decrease / Time when compound is affected: serum sample, LC/MS; for Increase or decrease: detection intensity vs 30 minutes from centrifugation to isolation; for Time when compound is affected: time from centrifugation to isolation, detection intensity changed by 30% or more vs 30 minutes
Protocol: After standing, the blood sample was subjected to centrifugation under a condition of room temperature, 3500 rpm, and 5 minutes. […] After centrifugation, the blood-collecting vessel was left to stand at room temperature, and the serum was isolated during this time. Here, in order to investigate how the detection intensity of molecules contained in the sample was affected in cases where the time during which the blood-collecting vessel was left at room temperature was set to 1 hour and 6 hours as compared to that in a case where the time was set to 30 minutes, preparations were performed under the respective conditions of 30 minutes, 1 hour, and 6 hours. The obtained serum sample was frozen and stored. Here, in order to investigate how the detection intensity of molecules contained in the sample was affected in cases where freezing and thawing was performed 4 times, 6 times, and 10 times after freezing as compared to that in a case where freezing and thawing was performed 2 times after freezing, freezing and thawing was performed under the respective conditions of 2, 4, 6, and 10 times.
(§1) Frozen blood plasma samples and serum samples were subjected to GC/MS or LC/MS. In GC/MS, the blood plasma samples and serum samples were subjected to methoxymation and trimethylsilylation and then introduced to GC-MS.
(§2) Analysis column: Discovery HS F5-3 (inner diameter of 2.1 mm, length of 150 mm, film thickness of 3 μm) (Sigma-Aldrich)
(§3) Column temperature: 40° C.
(§4) (A) 0.1% formic acid (dissolved in water)
(§5) (B) 0.1% formic acid (dissolved in acetonitrile)
(§6) Flow velocity: 0.25 mL/min
(§7) Ionization method: electrospray
(§8) Temperature: • Desolvation Line (DL) temperature: 250° C. • Heat block temperature: 400° C. • Interface temperature: 300° C.
(§9) Gas flow rate: • Nebulizer gas flow rate: 3.0 L/min • Drying gas flow rate: 10.0 L/min • Heating gas flow rate: 10.0 L/min
(§10) Mode: multiple reaction monitoring (MRM)
The rate of increase or decrease in Table K is the value of detection intensity relative to 1 that is the detection intensity in a case where the time from centrifugation to isolation is set to 30 minutes.

[5] = LC/MS of serum sample: number of times of freezing and thawing (Table M); design: key to Rate of increase or decrease: detection intensity relative to 1 at 2 freeze-thaw cycles; conditions: for Number of times when compound is affected / Increase or decrease: serum sample, LC/MS; for Number of times when compound is affected: detection intensity changed by 30% or more vs 2 times of freezing and thawing; for Increase or decrease: detection intensity vs 2 times of freezing and thawing
Outline: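 Serum was isolated at room temperature after centrifugation at room temperature, 3500 rpm, 5 minutes, then frozen and freeze-thawed 2, 4, 6 or 10 times. LC/MS used a Discovery HS F5-3 column at 40° C with formic acid water/acetonitrile, electrospray MRM. Intensity is relative to 2 freeze-thaw cycles.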

[6] = LC/MS of serum sample: time from blood collection to centrifugation (Table J); conditions: for Rate of increase or decrease: detection intensity relative to 1 at 15 minutes; for Increase or decrease / Time when compound is affected: serum sample, LC/MS; for Increase or decrease: detection intensity vs 15 minutes from blood collection to centrifugation; for Time when compound is affected: time from blood collection to centrifugation, detection intensity changed by 30% or more vs 15 minutes
Outline: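 Serum from blood centrifuged at room temperature, 3500 rpm, 5 min, then frozen; analysed by LC/MS on a Discovery HS F5-3 column at 40 °C. Mobile phase: 0.1% formic acid in water/acetonitrile, 0.25 mL/min, electrospray MRM. Values are intensity relative to a 15 min collection-to-centrifugation time.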

[7] = LC/MS of blood plasma sample: time from blood collection to cooling of blood (Table E); design: key to Rate of increase or decrease / Rate of increase or decrease (first value, increase): detection intensity relative to ≤1 min to cooling = 1; conditions: for Rate of increase or decrease: detection intensity relative to 1 at 1 minute or less, blood collection to cooling 5 minutes; for Increase or decrease: detection intensity, blood collection to cooling 5 minutes or more vs 1 minute or less
Protocol: At room temperature, 5 mL of blood from a healthy subject was taken into a blood-collecting vessel containing EDTA, and the blood-collecting vessel was inverted for mixing, then cooled, and allowed to stand at 4° C. Here, in order to investigate how the detection intensity of molecules contained in the sample was affected in a case where the time to cooling was set to 5 minutes or more as compared to that in a case where the time to cooling was set to 1 minute or less, preparations were performed under both the former condition and the latter condition. After standing, the blood sample was subjected to centrifugation under a condition of 4° C., 3000 rpm, and 15 minutes. […] After centrifugation, the blood-collecting vessel was left to stand at room temperature for 30 minutes, and the blood plasma was isolated during this 30 minutes. The obtained blood plasma sample was frozen and stored. Here, in order to investigate how the detection intensity of molecules contained in the sample was affected in cases where freezing and thawing was performed 4 times, 6 times, and 10 times after freezing as compared to that in a case where freezing and thawing was performed 2 times after freezing, freezing and thawing was performed under the respective conditions of 2, 4, 6, and 10 times.
as §1, §2, §3, §4, §5, §6, §7, §8, §9, §10
The rate of increase or decrease in Table E is the value of detection intensity relative to 1 that is the detection intensity in a case where the time from blood collection to cooling is set to 1 minute or less.

[8] = GC/MS of serum sample: time from centrifugation to isolation (Table H)
Outline: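 Blood was centrifuged at room temperature, 3500 rpm, 5 min, and the vessel left at room temperature for 30 min, 1 h or 6 h before serum isolation. Serum was methoxymated, trimethylsilylated and analysed by GC/MS with electron ionization in MRM mode; intensities expressed relative to the 30-min condition (=1).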

[9] = GC/MS of serum sample: number of times of freezing and thawing (Table I); conditions: serum, GC/MS
Outline: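 Serum was isolated after centrifugation at room temperature (3500 rpm, 5 min), frozen, and put through 2, 4, 6 or 10 freeze–thaw cycles. Samples were methoxymated and trimethylsilylated, then run by electron-ionization GC/MS in MRM mode on a BPX5 column (60 to 330 °C). Detection intensity is given relative to the 2-cycle sample, set as 1.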

[10] = GC/MS of serum sample: time from blood collection to centrifugation (Table G); conditions: blood collection to centrifugation
Outline: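 Blood was held for varying times before centrifugation (room temperature, 3500 rpm, 5 min); serum was frozen, then methoxymated and trimethylsilylated for GC/MS with electron ionization in MRM mode. Values are detection intensities relative to the 15-minute collection-to-centrifugation condition, set as 1.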

[11] = freezing and thawing 4 times vs 2 times
[12] = after 4 hours from blood collection to centrifugation
[13] = 6 times of freezing and thawing, detection intensity relative to 1 at 2 times
[14] = freezing and thawing 6 times vs 2 times

Rate of increase or decrease ([2]; freezing and thawing 4 times) | Increase or decrease [2, 11] | Rate of increase or decrease ([3]; after 6 hours) | Increase or decrease ([3]; after 6 hours vs 15 minutes) | Increase or decrease [4] | Time when compound is affected [4] | Number of times when compound is affected [5] [times] | Increase or decrease [5] | Increase or decrease [6] | Time when compound is affected [6] | Rate of increase or decrease [7] | Increase or decrease [7] | SMILES | also measured
2.37 | Increase | 0.58 | Decrease | Increase | After 1 hour hours | 10 | Decrease | Increase | After 4 hours | – | – | O=C(O)CC(O)C(=O)O (stereo not drawn) [Malic acid] | Rate of increase or decrease ([1]; detection intensity relative to 1 at 15 minutes, after 12 hours): 1.36; Increase or decrease ([1]; detection intensity, after 12 hours vs 15 minutes): Increase; Rate of increase or decrease [4]: 1.38; Rate of increase or decrease ([5]; 10 times of freezing and thawing, detection intensity relative to 1 at 2 times): 0.64; Rate of increase or decrease [6, 12]: 1.33
– | – | – | – | – | – | 6 | Decrease | – | – | 1.31 | Increase | CN(C)C(N)=NCCC[C@H](N)C(=O)O [Asymmetric dimethylarginine] | Increase or decrease ([3]; after 12 hours vs 15 minutes): Different from individual; Rate of increase or decrease (second value, decrease) ([3]; different from individual to individual, individuals with decrease, relative to 1 at 15 minutes, collection to centrifugation, after 12 hours): 0.66; Rate of increase or decrease (first value, increase) ([3]; different from individual to individual, individuals with increase, relative to 1 at 15 minutes, collection to centrifugation, after 12 hours): 1.78; Rate of increase or decrease [5, 13]: 0.69
– | – | – | – | – | – | – | – | – | – | – | Different from individual | Nc1nc2c(ncn2[C@@H]2O[C@H](COP(=O)(O)O)[C@@H](O)[C@H]2O)c(=O)[nH]1 [Guanosine monophosphate] | Rate of increase or decrease ([2]; freezing and thawing 6 times): 1.95; Increase or decrease [2, 14]: Increase; Rate of increase or decrease ([3]; after 4 hours): 1.89; Increase or decrease ([3]; after 4 hours vs 15 minutes): Increase; Rate of increase or decrease (second value, decrease) ([7]; different from individual to individual, individuals with decrease, relative to 1 at 1 minute or less, collection to cooling 5 minutes): 0.59; Rate of increase or decrease (first value, increase) ([7]; different from individual to individual, individuals with increase, relative to 1 at 1 minute or less, collection to cooling 5 minutes): 1.47
1.76 | Increase | 0.70 | Decrease | – | – | – | – | – | – | 1.50 | Increase | NCCCC(=O)O [4-Aminobutyric acid] | –
2.01 | Increase | – | – | Increase | After 1 hour hours | 6 | Different from individual | Decrease | After 6 hours | – | – | N=C(N)NCCC[C@H](NC(CC(=O)O)C(=O)O)C(=O)O (stereo partly drawn) [Argininosuccinic acid] | Rate of increase or decrease ([3]; after 12 hours): 0.61; Increase or decrease ([3]; after 12 hours vs 15 minutes): Decrease; Rate of increase or decrease ([5]; 6 times of freezing and thawing, relative to 1 at 2 times, different from individual to individual, first value (increase)): 1.38; Rate of increase or decrease ([5]; 6 times of freezing and thawing, relative to 1 at 2 times, different from individual to individual, second value (decrease)): 0.49; Rate of increase or decrease ([6]; after 6 hours from blood collection to centrifugation): 0.65
– | – | 0.53 | Decrease | – | – | – | – | Increase | After 12 hours | 1.43 | Increase | NCCc1ccc(O)c(O)c1 [Dopamine] | Rate of increase or decrease ([8]; detection intensity relative to 1 at 30 minutes, after 1 hour): 0.64; Increase or decrease ([8]; detection intensity, after 1 hour vs 30 minutes): Decrease; Rate of increase or decrease ([9]; detection intensity relative to 1 at 2 times, freezing and thawing 4 times): 0.53; Increase or decrease ([9]; detection intensity, freezing and thawing 4 times vs 2 times): Decrease; Rate of increase or decrease ([6]; after 12 hours from blood collection to centrifugation): 1.39; Rate of increase or decrease ([10]; detection intensity relative to 1 at 15 minutes, after 4 hours): 1.50; Increase or decrease ([10]; detection intensity, after 4 hours vs 15 minutes): Increase
– | – | 1.57 | Increase | Decrease | After 1 hour hours | 6 | Decrease | Decrease | After 4 hours | – | – | Nc1nc2c(ncn2[C@@H]2O[C@H](CO)[C@@H](O)[C@H]2O)c(=O)[nH]1 [Guanosine] | Rate of increase or decrease ([2]; freezing and thawing 6 times): 0.58; Increase or decrease [2, 14]: Decrease; Rate of increase or decrease [4]: 0.57; Rate of increase or decrease [5, 13]: 0.62; Rate of increase or decrease [6, 12]: 0.08
